Columns and labels:
[1] = biological target: T1, human dopamine D2L receptors (Homo sapiens, UniProt P14416); experiment: Dopamine D2L receptor binding assay ([3H]Spiperone); conditions: 30 nM, CHO cell membranes
T1 construct: expressed in transfected cells
Description: Dopamine D2L Receptor Binding Assay
This assay measures binding of [^3H]Spiperone to human dopamine D2L receptors. CHO cells stably transfected with a plasmid encoding the human dopamine D2L receptor were used to prepare membranes in modified Tris-HCl pH 7.4 buffer. A 20 μg aliquot of membrane, in the presence or absence of a test compound, was incubated with 0.16 nM [^3H]Spiperone for 120 minutes at 25° C. Non-specific binding was estimated in the presence of 10 μM hapoperidol. Membranes were filtered and washed three times and the filters were counted to determine [^3H]Spiperone specifically bound. [References: Grandy D K, Marchionni M A, Makam H, Stofko R E, Alfano M, Frothingham L, Fischer J B, Burker-Howie K J, Bunzow J R, Server A C. Proc. Natl. Acad. Sci. (USA) 86: 9762-9766, 1989; Bunzow J R, Van Tol H H, Grandy D K, Albert P, Salon J, Christie M, Machida C A, Neve K A, Civelli O. Nature 336: 783-787, 1988; Hayes G, Biden T J, Selbie L A, Shine J. Mol. Endocrin. 6: 920-926, 1992]

[2] = biological target: T2, serotonin 5-HT2 receptors (Rattus norvegicus, UniProt P14842); experiment: Serotonin 5-HT2 receptor binding assay ([3H]Ketanserin); conditions: 30 nM, rat whole brain membranes
T2 construct: from tissue; host or cells: rat whole brain (except cerebellum) membranes
T2 sequence (P14842 whole entry): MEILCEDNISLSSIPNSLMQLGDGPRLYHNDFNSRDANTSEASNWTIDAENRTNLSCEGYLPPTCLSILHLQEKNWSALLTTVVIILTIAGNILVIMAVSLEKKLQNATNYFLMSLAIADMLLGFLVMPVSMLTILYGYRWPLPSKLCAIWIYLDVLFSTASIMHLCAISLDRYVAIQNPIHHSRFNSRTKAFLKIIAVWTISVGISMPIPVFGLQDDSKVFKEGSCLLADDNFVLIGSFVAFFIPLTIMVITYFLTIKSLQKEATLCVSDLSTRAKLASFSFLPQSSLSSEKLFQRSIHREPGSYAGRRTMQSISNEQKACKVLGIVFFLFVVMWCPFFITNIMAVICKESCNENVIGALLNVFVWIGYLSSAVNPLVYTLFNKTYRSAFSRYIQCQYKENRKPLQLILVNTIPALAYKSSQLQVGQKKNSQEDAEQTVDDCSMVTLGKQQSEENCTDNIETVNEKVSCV
Description: Serotonin 5-HT2 Receptor Binding Assay
This assay measures binding of [^3H]Ketanserin to serotonin 5-HT2 receptors. Whole brain (except cerebellum) membranes of male Wistar derived rats weighing 175±25 g were prepared in Tris-HCl pH 7.7 buffer. A 10 mg aliquot of membrane was incubated with 0.5 nM [^3H]Ketanserin for 40 minutes at 25° C. Non-specific binding was estimated in the presence of 1 μM Ketanserin. Membranes were filtered and washed three times and the filters were counted to determine [^3H]Ketanserin specifically bound. [Reference: Leysen J E, Niemegeers C J, Van Nauten J M, Laduron D M. Mol. Pharmacol. 21: 301-314, 1982]

[3] = system: apomorphine-induced climbing behavior in mice; experiment: Effects on apomorphine-induced climbing behavior; assay type: in vivo; conditions: for Inhibition % of apomorphine-induced climbing behavior: apomorphine 1 mg/kg SC 60 min after dosing; for Agonist activity (score): group score 0-6, 30 to 60 minutes post-dosing, 3 mice
Description: Climbing behavior was scored 0-2 for each animal from 30 to 60-minutes post-dosing: all four paws on floor=0, both forefeet holding the wall=1, all four paws on wall=2. Consequently, maximum possible group score was 2×3 mice=6. A score of 3 or more (≧3) during this 30 minute observation period denotes dopamine-agonist activity. Mice in which no significant dopamine agonist activity occurred were then used to determine antagonistic activity. […] [Reference: Psychopharmacology 50: 1-6, 1976] Percentage inhibition of test substance on apomorphine-induced climbing behavior is calculated as follows: [formula]

T1 sequence (P14416 whole entry): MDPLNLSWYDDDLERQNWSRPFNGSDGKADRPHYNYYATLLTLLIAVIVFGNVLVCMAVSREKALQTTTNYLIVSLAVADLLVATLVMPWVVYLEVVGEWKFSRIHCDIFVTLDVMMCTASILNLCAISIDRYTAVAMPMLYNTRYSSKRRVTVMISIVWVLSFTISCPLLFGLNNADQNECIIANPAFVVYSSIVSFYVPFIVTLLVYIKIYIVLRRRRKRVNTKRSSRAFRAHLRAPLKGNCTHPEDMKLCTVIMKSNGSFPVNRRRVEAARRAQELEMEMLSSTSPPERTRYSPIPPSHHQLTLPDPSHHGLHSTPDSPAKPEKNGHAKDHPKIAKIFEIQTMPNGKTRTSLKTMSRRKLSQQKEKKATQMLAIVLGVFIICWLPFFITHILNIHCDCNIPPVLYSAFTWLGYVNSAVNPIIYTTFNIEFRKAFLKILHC

| SMILES | inhibition at 0.03 µM [1] [%] | inhibition at 0.03 µM [2] [%] | Inhibition % D2L [1] [%] | Inhibition % 5-HT2 [2] [%] | further results |
| --- | --- | --- | --- | --- | --- |
| O=C1Nc2ccccc2C2=NC(CN3CCN(Cc4ccccc4)CC3)CN12 (stereo not shown) [PDC-121, 2-[4-benzyl-1-piperazinyl]methyl-2,3-dihydroimidazo[1,2-c]quinazolin-5(6H)-one] | 18 | 21 | – | – | – |
| O=C1Nc2ccccc2C2=NC(CC3CCC4(CCCCC4)NC3)CN12 (stereo not shown) [PDC-122, 3-{2,3-dihydroimidazo[1,2-c]quinazolin-5(6H)-one-2-yl}methyl-azaspiro-[5,5]undecane] | 13 | 2 | – | – | – |
| O=C1Nc2ccccc2C2=NC(CN3CCN(Cc4ccc5c(c4)OCO5)CC3)CN12 (stereo not shown) [PDC-123, 2-[4-piperonyl-1-piperazinyl]methyl-2,3-dihydroimidazo[1,2-c]-quinazolin-5(6H)-one] | 11 | 4 | – | – | – |
| O=C1Nc2ccccc2C2=NC(CN3CCC(Cc4ccccc4)CC3)CN12 (stereo not shown) [PDC-124, 2-[4-Benzyl-1-piperidinyl]methyl-2,3-dihydroimidazo[1,2-c]quinazolin-5(6H)-one] | 14 | 62 | – | – | Inhibition % of apomorphine-induced climbing behavior ([3]; PO 30 mg/kg): 50%; Agonist activity (score) ([3]; PO 30 mg/kg): 0 |
| O=C1Nc2ccccc2C2=NC(CNC3CCN(Cc4ccccc4)CC3)CN12 (stereo not shown) [PDC-126, 2-[1-benzylpiperidin-4-yl]aminomethyl-2,3-dihydroimidazo[1,2-c]-quinazolin-5(6H)-one] | 29 | 11 | – | – | – |
| O=C1Nc2ccccc2C2=NC(CN3CCN(Cc4ccc(F)cc4)CC3)CN12 (stereo not shown) [PDC-127, 2-[4-(4-fluorobenzyl)-1-piperazinyl]methyl-2,3-dihydroimidazo[1,2-c]quinazolin-5(6H)-one] | 11 | 20 | – | – | – |
| O=C(c1ccc(F)cc1)C1CCN(CC2CN3C(=O)Nc4ccccc4C3=N2)CC1 (stereo not shown) [PDC-130, 2-[1-(4-p-fluorobenzoyl)piperidinyl]methyl-2,3-dihydroimidazo[1,2-c]-quinazolin-5(6H)-one] | – | – | 16 | 88 | Inhibition % of apomorphine-induced climbing behavior ([3]; PO 1 mg/kg): 0%; Agonist activity (score) ([3]; PO 1 mg/kg): 0; Inhibition % of apomorphine-induced climbing behavior ([3]; PO 3 mg/kg): 60%; Agonist activity (score) ([3]; PO 3 mg/kg): 0; Inhibition % of apomorphine-induced climbing behavior ([3]; PO 10 mg/kg): 100%; Agonist activity (score) ([3]; PO 10 mg/kg): 0; Inhibition % of apomorphine-induced climbing behavior ([3]; PO 30 mg/kg): 100%; Agonist activity (score) ([3]; PO 30 mg/kg): 0 |
| O=C1Nc2ccccc2C2=NC(CN3CCN(C(c4ccccc4)c4ccc(Cl)cc4)CC3)CN12 (stereo not shown) [PDC-131, 2-[1-(4-chlorobenzhydryl)piperazinyl]methyl-2,3-dihydroimidazo[1,2-c]-quinazolin-5(6H)-one] | – | – | 10 | 47 | – |
| COc1ccc(N2CCN(CC3CN4C(=O)Nc5ccccc5C4=N3)CC2)cc1 (stereo not shown) [PDC-132, 2-[1-(4-methoxyphenyl)piperazinyl]methyl-2,3-dihydroimidazo[1,2-c]-quinazolin-5(6H)-one] | – | – | 15 | 5 | – |
